This is an account of results in ChEMBL document CHEMBL1156090, “Design and synthesis of cell potent BACE-1 inhibitors: structure-activity relationship of P1' substituents” (Bioorg Med Chem Lett, 2009).

For one data set, the target named is Cathepsin D (Homo sapiens, UniProt P07339).
A further data set deals with Beta-secretase 1 (Homo sapiens, UniProt P56817).
For a further data set, the system named is HEK293. As to the kind of experiment: […] HEK293 cells expressing swedish-mutant APP FAD isoform. The conditions noted are these: read-out: ED50 (the source's name). The class given is functional, Homo sapiens.
The nature of data set [1]: Apparent permeability from apical side to basolateral side in MDCK2 cells at 5 uM after 120 mins by LC/MS/MS. The class given is ADME, cell-based, Canis lupus familiaris, MDCK-II. Particulars: dog, MDCK.

Molecules are shown by their SMILES.

Chain of Beta-secretase 1 (P56817 whole entry, canonical isoform): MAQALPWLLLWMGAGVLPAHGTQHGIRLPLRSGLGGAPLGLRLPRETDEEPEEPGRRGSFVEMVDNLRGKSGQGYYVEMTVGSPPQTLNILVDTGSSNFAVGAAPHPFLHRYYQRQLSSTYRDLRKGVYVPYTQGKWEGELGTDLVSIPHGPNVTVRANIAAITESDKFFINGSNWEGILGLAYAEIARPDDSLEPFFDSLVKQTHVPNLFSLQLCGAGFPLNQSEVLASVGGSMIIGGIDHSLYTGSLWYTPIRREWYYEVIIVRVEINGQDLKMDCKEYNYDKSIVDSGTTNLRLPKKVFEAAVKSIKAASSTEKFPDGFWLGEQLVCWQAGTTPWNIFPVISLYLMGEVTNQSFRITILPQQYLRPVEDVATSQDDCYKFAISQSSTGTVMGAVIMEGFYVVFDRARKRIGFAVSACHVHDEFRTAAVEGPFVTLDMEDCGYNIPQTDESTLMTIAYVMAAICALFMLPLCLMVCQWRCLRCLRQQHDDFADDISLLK
Chain of Cathepsin D (P07339 65-162 limits assumed): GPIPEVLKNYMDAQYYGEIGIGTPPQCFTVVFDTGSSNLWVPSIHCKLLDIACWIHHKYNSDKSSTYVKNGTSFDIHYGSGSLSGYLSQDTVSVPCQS
Chain of Cathepsin D (P07339 169-412 limits assumed): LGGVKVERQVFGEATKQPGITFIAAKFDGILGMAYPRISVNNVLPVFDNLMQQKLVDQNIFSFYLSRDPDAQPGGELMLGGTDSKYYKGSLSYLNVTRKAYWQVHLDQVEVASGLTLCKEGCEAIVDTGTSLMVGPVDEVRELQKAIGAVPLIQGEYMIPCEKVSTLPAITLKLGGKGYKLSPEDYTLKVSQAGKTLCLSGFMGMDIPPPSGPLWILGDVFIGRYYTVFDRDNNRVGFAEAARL
Description for Beta-secretase 1: Inhibition of recombinant BACE1 expressed in Escherichia coli after 3 hrs by oregon green based fluorescence polarization assay
Description for Cathepsin D: Inhibition of cathepsin D assessed as reduction in polarization after 110 mins by oregon green based fluorescence polarization assay

Turning to `CC(=O)N[C@@H](Cc1cc(F)cc(F)c1)[C@H](O)CNC1(c2cccc(C(C)(C)C)c2)CCN(C(N)=O)CC1`, the results for the IC50 against Cathepsin D and at Beta-secretase 1 were 4300 nM and 380 nM, respectively. For the same compound, the EC50 in the data set with HEK293 (Homo sapiens, HEK293) is more than 1000 nM.
On the same counts, the results for `CC(=O)N[C@@H](Cc1cc(F)cc(F)c1)[C@H](O)CNC1(c2cccc(C(C)(C)C)c2)CCc2nc(C)ncc2C1` (mixture of isomers) are 910 nM, 93 nM and 15 nM.
As for `CC(=O)N[C@@H](Cc1cc(F)cc(F)c1)[C@H](O)CNC1(c2cccc(C(C)(C)C)c2)CCCN(C(N)=O)C1` (mixture of isomers), the 50% inhibitory concentration (IC50) against Cathepsin D was 90 nM; against Beta-secretase 1 it was 330 nM. Also, the EC50 in the data set with HEK293 (Homo sapiens, HEK293) worked out at 210 nM.
Turning to `CC(=O)N[C@@H](Cc1cc(F)cc(F)c1)[C@H](O)CN[C@@]1(c2cccc(C(C)(C)C)c2)CC[C@H](Nc2cccnc2)NC1`, the 50% inhibitory concentration (IC50) at Cathepsin D amounted to 9800 nM; at Beta-secretase 1, 500 nM.
For the compound `CC(=O)N[C@@H](Cc1cc(F)cc(F)c1)[C@H](O)CN[C@@]1(c2cccc(C(C)(C)C)c2)CC[C@H](C(F)(F)F)NC1`, the IC50 against Cathepsin D worked out at 28 nM; on Beta-secretase 1, 33 nM. Besides, the EC50 with HEK293 (Homo sapiens, HEK293) is 54 nM.
`COC(=O)N[C@H]1CC[C@@](NC[C@@H](O)[C@H](Cc2cc(F)cc(F)c2)NC(C)=O)(c2cccc(C(C)(C)C)c2)CN1`: the IC50 was 2000 nM against Cathepsin D and 240 nM against Beta-secretase 1. Further, the EC50 in the data set with HEK293 (Homo sapiens, HEK293) is 16 nM.
On the same counts, the results for `CS[C@H]1CC[C@@](NC[C@@H](O)[C@H](Cc2cc(F)cc(F)c2)NC(C)=O)(c2cccc(C(C)(C)C)c2)CN1` are 84 nM, 24 nM and 7.5 nM.
Taken in the same sequence, the figures for `CC(=O)N[C@@H](Cc1cc(F)cc(F)c1)[C@H](O)CN[C@@]1(c2cccc(C(C)(C)C)c2)CC[C@H](NO)NC1` were 3900 nM, 19 nM and 0.96 nM.
In the case of `CC(=O)N[C@@H](Cc1cc(F)cc(F)c1)[C@H](O)CNC1(c2cccc(C(C)(C)C)c2)CCCN(O)C1` (mixture of isomers), the IC50 at Cathepsin D was found to be 670 nM; against Beta-secretase 1 it was 400 nM. Moreover, the EC50 in the data set with HEK293 (Homo sapiens, HEK293) turned out to be 45 nM.
Taken in the same sequence, the figures for `CC(=O)N[C@@H](Cc1cc(F)cc(F)c1)[C@H](O)CNC1(c2cccc(C(C)(C)C)c2)CCCN(C(C)=O)C1` (mixture of isomers) were 410 nM, 1300 nM and 560 nM.
As for `CC(=O)N[C@@H](Cc1cc(F)cc(F)c1)[C@H](O)CN[C@]1(c2cccc(C(C)(C)C)c2)CC[C@@H](O)CC1`, the results for the half-maximal inhibitory concentration (IC50) at Cathepsin D and on Beta-secretase 1 were 1400 nM and 24 nM, respectively. In the data set on HEK293 (Homo sapiens, HEK293), the EC50 is 11 nM. In addition, the Papp A→B at 2 h, 5 µM in data set [1] was 0.3 ×10⁻⁶ cm/s.
Take `CON[C@H]1CC[C@@](NC[C@@H](O)[C@H](Cc2cc(F)cc(F)c2)NC(C)=O)(c2cccc(C(C)(C)C)c2)CN1`: the results for the concentration for half-maximal inhibition (IC50) against Cathepsin D and at Beta-secretase 1 were 530 nM and 100 nM, respectively. The EC50 with HEK293 (Homo sapiens, HEK293) is 7.6 nM.
On the same counts, the results for `CC(=O)N[C@@H](Cc1cc(F)cc(F)c1)[C@H](O)CNC1(c2cccc(C(C)(C)C)c2)CCc2nc(N)ncc2C1` (mixture of isomers) are 210 nM, 14 nM and 1.8 nM.
On to `CC(=O)N[C@@H](Cc1cc(F)cc(F)c1)[C@H](O)CNC1(c2cccc(C(C)(C)C)c2)CCCN(C(=O)OCc2ccccc2)C1` (mixture of isomers), for which the IC50 against Cathepsin D was determined as 3.3 nM; on Beta-secretase 1 it was 860 nM. For the same compound, the EC50 in the data set with HEK293 (Homo sapiens, HEK293) is 780 nM.
Taken in the same sequence, the figures for `CC(=O)N[C@@H](Cc1cc(F)cc(F)c1)[C@H](O)CNC1(c2cccc(-n3cccn3)c2)CCOC1` (mixture of isomers) were 4900 nM, 2400 nM and more than 1000 nM.
On the same counts, the results for `CC(=O)N[C@@H](Cc1cc(F)cc(F)c1)[C@H](O)CNC1(c2cccc(C(C)(C)C)c2)CCCC1` (mixture of isomers) are 130 nM, 220 nM and more than 100 nM.
Taken in the same sequence, the figures for `CC(=O)N[C@@H](Cc1cc(F)cc(F)c1)[C@H](O)CN[C@@]1(c2cccc(C(C)(C)C)c2)CC[C@H](Nc2ccccn2)NC1` were 4400 nM, 73 nM and 21 nM.
Regarding `CC(=O)N[C@@H](Cc1cc(F)cc(F)c1)[C@H](O)CNC1(c2cccc(C(C)(C)C)c2)CCCNC1` (mixture of isomers), the figures for the IC50 against Cathepsin D and against Beta-secretase 1 were 2330 nM and more than 10000 nM, respectively. The EC50 with HEK293 (Homo sapiens, HEK293) is more than 1000 nM.
With `CC(=O)N[C@@H](Cc1cc(F)cc(F)c1)[C@H](O)CN[C@]1(c2cccc(C(C)(C)C)c2)CC[C@@H](CCO)CC1`, the IC50 at Cathepsin D and on Beta-secretase 1 was more than 10000 nM throughout. In addition, the EC50 in the data set with HEK293 (Homo sapiens, HEK293) was more than 1000 nM.
For `CO[C@H]1CC[C@@](NC[C@@H](O)[C@H](Cc2cc(F)cc(F)c2)NC(C)=O)(c2cccc(C(C)(C)C)c2)CN1`, the IC50 at Cathepsin D is 130 nM; against Beta-secretase 1, 140 nM. For the same compound, the EC50 in the data set with HEK293 (Homo sapiens, HEK293) stood at 13 nM.
On the same counts, the results for `CC(=O)N[C@@H](Cc1cc(F)cc(F)c1)[C@H](O)CN[C@@]1(c2cccc(C(C)(C)C)c2)CC[C@H](NS(C)(=O)=O)NC1` are 7200 nM, 400 nM and 5.9 nM.
Taken in the same sequence, the figures for `CC(=O)N[C@@H](Cc1cc(F)cc(F)c1)[C@H](O)CN[C@]1(c2cccc(C(C)(C)C)c2)CC[C@H](O)CC1` were more than 10000 nM, 9200 nM and 870 nM.
Regarding `CC(=O)N[C@@H](Cc1cc(F)cc(F)c1)[C@H](O)CNC1(c2cccc(C(C)(C)C)c2)CCOCC1` (mixture of isomers), the IC50 against Cathepsin D was 230 nM; against Beta-secretase 1, 61 nM. In data set [1], the apical-to-basolateral permeability (Papp A→B) at 2 h, 5 µM came out at 8.1 ×10⁻⁶ cm/s.
For the compound `CC(=O)N[C@@H](Cc1cc(F)cc(F)c1)[C@H](O)CNC1(c2cccc(C(C)(C)C)c2)CCC(=O)CC1`, the IC50 was determined as 450 nM against Cathepsin D and 120 nM at Beta-secretase 1. For the same compound, the EC50 in the data set with HEK293 (Homo sapiens, HEK293) worked out at 5.6 nM.
Turning to `CC(=O)N[C@@H](Cc1cc(F)cc(F)c1)[C@H](O)CN[C@@]1(c2cccc(C(C)(C)C)c2)CC[C@H](NC=O)NC1`, the 50% inhibitory concentration (IC50) on Cathepsin D is more than 10000 nM; against Beta-secretase 1 it was 210 nM. In addition, the EC50 in the data set with HEK293 (Homo sapiens, HEK293) is 2.4 nM.
For `CC(=O)N[C@@H](Cc1cc(F)cc(F)c1)[C@H](O)CNC1(c2cccc(-n3cccn3)c2)CCCOC1` (mixture of isomers), the IC50 on Cathepsin D came out at 170 nM; against Beta-secretase 1 it was 270 nM. Further, in the data set with HEK293 (Homo sapiens, HEK293), the EC50 came out at 91 nM.
With `CC(=O)N[C@@H](Cc1cc(F)cc(F)c1)[C@H](O)CN[C@@]1(c2cccc(C(C)(C)C)c2)CC[C@H](C#N)NC1`, the IC50 is 640 nM against Cathepsin D and 380 nM against Beta-secretase 1. Besides, in the data set with HEK293 (Homo sapiens, HEK293), the EC50 amounted to 37 nM.
For the compound `CC(=O)N[C@@H](Cc1cc(F)cc(F)c1)[C@H](O)CN[C@@]1(c2cccc(C(C)(C)C)c2)CCC(NO)=NC1`, the IC50 turned out to be 430 nM against Cathepsin D and 8.8 nM on Beta-secretase 1. Further, the EC50 with HEK293 (Homo sapiens, HEK293) amounted to 0.89 nM.
Take `CC(=O)N[C@@H](Cc1cc(F)cc(F)c1)[C@H](O)CN[C@@]1(c2cccc(C(C)(C)C)c2)CC[C@H](S(C)(=O)=O)NC1`: the IC50 against Cathepsin D stood at 2300 nM; against Beta-secretase 1, 210 nM. The EC50 in the data set on HEK293 (Homo sapiens, HEK293) turned out to be 100 nM.
Taken in the same sequence, the figures for `CC(=O)N[C@@H](Cc1cc(F)cc(F)c1)[C@H](O)CN[C@@]1(c2cccc(C(C)(C)C)c2)CC[C@H](N(O)C(C)=O)NC1` were 2300 nM, 240 nM and 1.3 nM.
Taken in the same sequence, the figures for `CC(=O)N[C@@H](Cc1cc(F)cc(F)c1)[C@H](O)CNC1(c2cccc(C(C)(C)C)c2)CCC(=O)NC1` (mixture of isomers) were 180 nM, 47 nM and 76 nM.
Regarding `CC(=O)N[C@@H](Cc1cc(F)cc(F)c1)[C@H](O)CNC1(c2cccc(C(C)(C)C)c2)CCNCC1`, the 50% inhibitory concentration (IC50) is more than 10000 nM against Cathepsin D and 4700 nM against Beta-secretase 1. Also, the EC50 in the data set on HEK293 (Homo sapiens, HEK293) is 710 nM.
In the case of `CC(=O)N[C@@H](Cc1cc(F)cc(F)c1)[C@H](O)CNC1(c2cccc(C(C)(C)C)c2)CCc2n[nH]cc2C1` (mixture of isomers), 300 nM corresponded to half-maximal inhibition against Cathepsin D (IC50). Moreover, the EC50 with HEK293 (Homo sapiens, HEK293) is 2.1 nM. For the same compound, the Papp A→B at 2 h, 5 µM in data set [1] is 1.6 ×10⁻⁶ cm/s.
`CC(=O)N[C@@H](Cc1cc(F)cc(F)c1)[C@H](O)CN[C@]1(c2cccc(C(C)(C)C)c2)CC[C@@H](CO)CC1`: the IC50 on Cathepsin D amounted to 330 nM; at Beta-secretase 1, 38 nM. The EC50 in the data set with HEK293 (Homo sapiens, HEK293) was 31 nM.
`CC(=O)N[C@@H](Cc1cc(F)cc(F)c1)[C@H](O)CNC1(c2cccc(C(C)(C)C)c2)CCNC(=O)C1` (stereo in doubt; 16): the 50% inhibitory concentration (IC50) is 1100 nM against Cathepsin D and 19 nM at Beta-secretase 1. Besides, the EC50 with HEK293 worked out at 23 nM.
With `CC(=O)N[C@H]1CC[C@@](NC[C@@H](O)[C@H](Cc2cc(F)cc(F)c2)NC(C)=O)(c2cccc(C(C)(C)C)c2)CN1`, the IC50 is more than 10000 nM on Cathepsin D and 350 nM against Beta-secretase 1. Besides, in the data set on HEK293 (Homo sapiens, HEK293), the EC50 stood at 48 nM.
On to `CC(=O)N[C@@H](Cc1cc(F)cc(F)c1)[C@H](O)CNC1(c2cccc(C(C)(C)C)c2)CCNC(=O)C1` (single isomer, unassigned), for which the 50% inhibitory concentration (IC50) against Cathepsin D amounted to 330 nM; at Beta-secretase 1, 18 nM. Also, the EC50 in the data set on HEK293 (Homo sapiens, HEK293) stood at 21 nM.

The IC50 is the concentration that inhibits the measured activity by half. A lower IC50 goes with higher potency. The term Papp A→B denotes how fast a substance crosses the layer from the apical side.
